# Laboratory results taken from US9707229B2, “Compositions and methods for treating an infection” (CMPD LICENSING, LLC, priority 2015, dated 2017).
# Assays:
# Assay type in all cases: cell-based
# Aspergillus flavus = experiment: Expected efficacy of antifungal agents
# Aspergillus fumigatus = experiment: Expected efficacy of antifungal agents
# Blastomyces dermatitidis = experiment: Expected efficacy of antifungal agents
# Candida species = experiment: Expected efficacy of antifungal agents
# Coccidioides immitis = details: expected efficacy
# Cryptococcus neoformans = experiment: Expected efficacy of antifungal agents
# Histoplasma capsulatum = details: expected efficacy
# Bacteroides fragilis = experiment: Expected efficacy of antibiotic agents; details: Gram: anaer
# Clostridium difficile = experiment: Expected efficacy of antibiotic agents; details: Gram: anaer
# Clostridium perfringens = system: Clostridium perfringens
# Chlamydia pneumoniae = experiment: Expected efficacy of antibiotic agents; details: Gram: n/a
# Chlamydia psittaci = system: Chlamydia psittaci
# Chlamydia trachomatis = experiment: Expected efficacy of antibiotic agents; details: Gram: n/a
# Mycoplasma pneumoniae = experiment: Expected efficacy of antibiotic agents; details: Gram: n/a
# Acinetobacter baumannii = experiment: Expected efficacy of antibiotic agents; details: Gram: neg
# [1] = system: Acinetobacter calcoaceticus; experiment: Expected efficacy of antibiotic agents; details: Gram: neg
# Acinetobacter lwoffii = experiment: Expected efficacy of antibiotic agents; details: Gram: neg
# Bartonella bacilliformis = experiment: Expected efficacy of antibiotic agents; details: Gram: neg
# Bordetella pertussis = experiment: Expected efficacy of antibiotic agents; details: Gram: neg
# Brucella species = system: Brucella species
# Campylobacter jejuni = experiment: Expected efficacy of antibiotic agents; details: Gram: neg
# Citrobacter diversus = experiment: Expected efficacy of antibiotic agents; details: Gram: neg
# Citrobacter freundii = experiment: Expected efficacy of antibiotic agents; details: Gram: neg
# Enterobacter aerogenes = experiment: Expected efficacy of antibiotic agents; details: Gram: neg
# Enterobacter cloacae = experiment: Expected efficacy of antibiotic agents; details: Gram: neg
# Enterobacter sakazakii = experiment: Expected efficacy of antibiotic agents; details: Gram: neg
# Escherichia coli = experiment: Expected efficacy of antibiotic agents; details: Gram: neg
# Francisella tularensis = system: Francisella tularensis
# Haemophilus ducreyi = experiment: Expected efficacy of antibiotic agents; details: Gram: neg
# Haemophilus influenzae = experiment: Expected efficacy of antibiotic agents; details: Gram: neg
# [2] = system: Haemophilus parainfluenzae; experiment: Expected efficacy of antibiotic agents; details: Gram: neg
# [3] = system: Klebsiella (Calymmatobacterium) granulomatis; experiment: Expected efficacy of antibiotic agents; details: Gram: neg
# Klebsiella oxytoca = experiment: Expected efficacy of antibiotic agents; details: Gram: neg
# Klebsiella pneumoniae = experiment: Expected efficacy of antibiotic agents; details: Gram: neg
# Legionella pneumophila = system: Legionella pneumophila
# Moraxella catarrhalis = experiment: Expected efficacy of antibiotic agents; details: Gram: neg
# Morganella morganii = experiment: Expected efficacy of antibiotic agents; details: Gram: neg
# Neisseria gonorrhoeae = experiment: Expected efficacy of antibiotic agents; details: Gram: neg
# Neisseria meningitidis = experiment: Expected efficacy of antibiotic agents; details: Gram: neg
# Proteus mirabilis = experiment: Expected efficacy of antibiotic agents; details: Gram: neg
# Proteus vulgaris = experiment: Expected efficacy of antibiotic agents; details: Gram: neg
# Providencia rettgeri = experiment: Expected efficacy of antibiotic agents; details: Gram: neg
# Providencia stuartii = experiment: Expected efficacy of antibiotic agents; details: Gram: neg
# Pseudomonas aeruginosa = experiment: Expected efficacy of antibiotic agents; details: Gram: neg
# Pseudomonas fluorescens = experiment: Expected efficacy of antibiotic agents; details: Gram: neg
# Rickettsiae = system: Rickettsiae
# Salmonella typhi = experiment: Expected efficacy of antibiotic agents; details: Gram: neg
# Serratia marcescens = experiment: Expected efficacy of antibiotic agents; details: Gram: neg
# Shigella boydii = experiment: Expected efficacy of antibiotic agents; details: Gram: neg
# Shigella dysenteriae = experiment: Expected efficacy of antibiotic agents; details: Gram: neg
# Shigella flexneri = experiment: Expected efficacy of antibiotic agents; details: Gram: neg
# Shigella sonnei = experiment: Expected efficacy of antibiotic agents; details: Gram: neg
# Vibrio cholerae = experiment: Expected efficacy of antibiotic agents; details: Gram: neg
# Yersinia pestis = system: Yersinia pestis
# Corynebacterium jeikeium = experiment: Expected efficacy of antibiotic agents; details: Gram: pos
# [4] = system: Corynebacterium urealyticum; experiment: Expected efficacy of antibiotic agents; details: Gram: pos
# Diphtheroids = experiment: Expected efficacy of antibiotic agents; details: Gram: pos
# Enterococcus faecalis = experiment: Expected efficacy of antibiotic agents; details: Gram: pos
# Enterococcus faecium = experiment: Expected efficacy of antibiotic agents; details: Gram: pos
# [5] = system: Methicillin resistant staph aureus (MRSA); experiment: Expected efficacy of antibiotic agents; details: Gram: pos
# Peptostreptococcus = experiment: Expected efficacy of antibiotic agents; details: Gram: pos
# [6] = system: Staphylococcus aureus (MSSA); experiment: Expected efficacy of antibiotic agents; details: Gram: pos
# [7] = system: Staphylococcus epidermidis; experiment: Expected efficacy of antibiotic agents; details: Gram: pos
# Streptococcus agalactiae = experiment: Expected efficacy of antibiotic agents; details: Gram: pos
# Streptococcus pneumoniae = experiment: Expected efficacy of antibiotic agents; details: Gram: pos
# Streptococcus pyogenes = experiment: Expected efficacy of antibiotic agents; details: Gram: pos
# [8] = system: Viridans group streptococci; experiment: Expected efficacy of antibiotic agents; details: Gram: pos
smiles,measurement,setting,value
OC(Cn1cncn1)(Cn1cncn1)c1ccc(F)cc1F [Fluconazole],efficacy against Aspergillus flavus,Aspergillus flavus,yes
same,efficacy against Aspergillus fumigatus,Aspergillus fumigatus,yes
same,efficacy against Blastomyces dermatitidis,Blastomyces dermatitidis,yes
same,efficacy against Candida species,Candida species,yes
same,efficacy against Coccidioides immitis,Coccidioides immitis,yes
same,efficacy against Cryptococcus neoformans,Cryptococcus neoformans,yes
same,efficacy against Histoplasma capsulatum,Histoplasma capsulatum,yes
CN[C@H](CC(C)C)C(=O)N[C@H]1C(=O)N[C@@H](CC(N)=O)C(=O)N[C@H]2C(=O)N[C@H]3C(=O)N[C@H](C(=O)N[C@H](C(=O)O)c4cc(O)cc(O)c4-c4cc3ccc4O)[C@H](O)c3ccc(c(Cl)c3)Oc3cc2cc(c3O[C@@H]2O[C@H](CO)[C@@H](O)[C@H](O)[C@H]2O[C@H]2C[C@](C)(N)[C@H](O)[C@H](C)O2)Oc2ccc(cc2Cl)[C@H]1O [Vancomycin],efficacy against Bacteroides fragilis,Bacteroides fragilis,no
same,efficacy against Clostridium difficile,Clostridium difficile,yes
same,efficacy against Clostridium perfringens,Clostridium perfringens,no
same,efficacy against Chlamydia pneumoniae,Chlamydia pneumoniae,no
same,efficacy against Chlamydia psittaci,Chlamydia psittaci,no
same,efficacy against Chlamydia trachomatis,Chlamydia trachomatis,no
same,efficacy against Mycoplasma pneumoniae,Mycoplasma pneumoniae,no
same,efficacy against Acinetobacter baumannii,Acinetobacter baumannii,no
same,efficacy against Acinetobacter calcoaceticus,[1],no
same,efficacy against Acinetobacter lwoffii,Acinetobacter lwoffii,no
same,efficacy against Bartonella bacilliformis,Bartonella bacilliformis,no
same,efficacy against Bordetella pertussis,Bordetella pertussis,no
same,efficacy against Brucella species,Brucella species,no
same,efficacy against Campylobacter jejuni,Campylobacter jejuni,no
same,efficacy against Citrobacter diversus,Citrobacter diversus,no
same,efficacy against Citrobacter freundii,Citrobacter freundii,no
same,efficacy against Enterobacter aerogenes,Enterobacter aerogenes,no
same,efficacy against Enterobacter cloacae,Enterobacter cloacae,no
same,efficacy against Enterobacter sakazakii,Enterobacter sakazakii,no
same,efficacy against Escherichia coli,Escherichia coli,no
same,efficacy against Francisella tularensis,Francisella tularensis,no
same,efficacy against Haemophilus ducreyi,Haemophilus ducreyi,no
same,efficacy against Haemophilus influenzae,Haemophilus influenzae,no
same,efficacy against Haemophilus parainfluenzae,[2],no
same,efficacy against Klebsiella (Calymmatobacterium) granulomatis,[3],no
same,efficacy against Klebsiella oxytoca,Klebsiella oxytoca,no
same,efficacy against Klebsiella pneumoniae,Klebsiella pneumoniae,no
same,efficacy against Legionella pneumophila,Legionella pneumophila,no
same,efficacy against Moraxella catarrhalis,Moraxella catarrhalis,no
same,efficacy against Morganella morganii,Morganella morganii,no
same,efficacy against Neisseria gonorrhoeae,Neisseria gonorrhoeae,no
same,efficacy against Neisseria meningitidis,Neisseria meningitidis,no
same,efficacy against Proteus mirabilis,Proteus mirabilis,no
same,efficacy against Proteus vulgaris,Proteus vulgaris,no
same,efficacy against Providencia rettgeri,Providencia rettgeri,no
same,efficacy against Providencia stuartii,Providencia stuartii,no
same,efficacy against Pseudomonas aeruginosa,Pseudomonas aeruginosa,no
same,efficacy against Pseudomonas fluorescens,Pseudomonas fluorescens,no
same,efficacy against Rickettsiae,Rickettsiae,no
same,efficacy against Salmonella typhi,Salmonella typhi,no
same,efficacy against Serratia marcescens,Serratia marcescens,no
same,efficacy against Shigella boydii,Shigella boydii,no
same,efficacy against Shigella dysenteriae,Shigella dysenteriae,no
same,efficacy against Shigella flexneri,Shigella flexneri,no
same,efficacy against Shigella sonnei,Shigella sonnei,no
same,efficacy against Vibrio cholerae,Vibrio cholerae,no
same,efficacy against Yersinia pestis,Yersinia pestis,no
same,efficacy against Corynebacterium jeikeium,Corynebacterium jeikeium,yes
same,efficacy against Corynebacterium urealyticum,[4],yes
same,efficacy against Diphtheroids,Diphtheroids,yes
same,efficacy against Enterococcus faecalis,Enterococcus faecalis,yes
same,efficacy against Enterococcus faecium,Enterococcus faecium,"yes, not VRE"
same,efficacy against Methicillin resistant staph aureus (MRSA),[5],yes
same,efficacy against Peptostreptococcus,Peptostreptococcus,yes
same,efficacy against Staphylococcus aureus (MSSA),[6],yes
same,efficacy against Staphylococcus epidermidis,[7],yes
same,efficacy against Streptococcus agalactiae,Streptococcus agalactiae,yes
same,efficacy against Streptococcus pneumoniae,Streptococcus pneumoniae,yes
same,efficacy against Streptococcus pyogenes,Streptococcus pyogenes,yes
same,efficacy against Viridans group streptococci,[8],yes
